The test system of series [1] is rat. To be noted: Prenatal developmental toxicity study, sprague dawley, Oral, Gavage/Intubation, dose end: 15 GD.
Series [2] concerns rat. The following applies: Prenatal developmental toxicity study, sprague dawley, Oral, Gavage/Intubation, dose end: 19 GD.
In series [3] the test system is rat. To be noted: Multigenerational reproductive toxicity study, sprague dawley, Oral, Feed, dose end: 2 generation.
Series [4] deals with rat. To be noted: Prenatal developmental toxicity study, long evans, Oral, Gavage/Intubation, dose end: 15 GD.
The subject of series [5] is rat. To be noted: Prenatal developmental toxicity study, sprague dawley, Oral, Gavage/Intubation, dose end: 15 GD. This is another data set of the same source.
Series [6] relates to rat. The following applies: Prenatal developmental toxicity study, sprague dawley, Oral, Gavage/Intubation, dose end: 15 GD. The source holds these as a separate data set.
Setting [7] is: group: developmental, developmental / developmental malformation / bone / ossification sites + developmental / developmental malformation / bone / unossified + ….
The mark [8] stands for this setting: group: maternal, systemic / in life observation / body weight / body weight gain + systemic / in life observation / clinical signs / labored respiration + ….
Setting [9] is: group: developmental, developmental / developmental malformation / bone / unossified.
The mark [10] stands for this setting: group: maternal, reproductive / reproductive performance / postimplantation loss / postimplantation loss + reproductive / reproductive performance / ….
[11] abbreviates: group: offspring, systemic / in life observation / body weight / offspring (pup) weight gain.
Where [12] appears, read: group: parental, systemic / in life observation / body weight / body weight + systemic / in life observation / body weight / body weight gain + systemic / in….
Where [13] appears, read: group: reproductive, reproductive / reproductive performance / fertility / fertility + reproductive / reproductive performance / mating / mating.
The mark [14] stands for this setting: group: developmental, developmental / developmental malformation / placenta / size + systemic / in life observation / body weight / fetal weight.
Where [15] appears, read: group: maternal, systemic / in life observation / body weight / body weight gain.
[16] abbreviates: group: developmental, developmental / developmental malformation / bone / incomplete ossification.
[17] abbreviates: group: maternal, systemic / in life observation / body weight / body weight gain + systemic / in life observation / food consumption / food consumption + ….
[18] abbreviates: group: developmental, developmental / developmental malformation / bone / delayed ossification + systemic / in life observation / body weight / fetal weight.
The mark [19] stands for this setting: group: maternal, systemic / organ weight / liver / nos + reproductive / reproductive performance / resorptions / resorptions + systemic / in life observation….

Broadly, the LOAEL is the lowest dose or exposure tested at which an adverse effect was seen. As a reminder, the NOAEL is the highest dose or exposure tested at which no adverse effect was seen. As for `O=Cc1ccccc1C=O` [1,2-Benzenedicarboxaldehyde], in series [1] (setting [7]), the LEL was found to be 40 mg/kg/day, the lowest-observed-adverse-effect level (LOAEL) is 40 mg/kg/day, the NEL came to 20 mg/kg/day and the NOAEL amounted to 20 mg/kg/day. Besides, in series [1] (setting [8]), the LEL stood at 10 mg/kg/day, the LOAEL turned out to be 10 mg/kg/day, the NEL is < 10 mg/kg/day and the no observed adverse effect level (NOAEL) was < 10 mg/kg/day.
`CC#N` [Acetonitrile]: in series [2] (setting [9]), the LEL was determined as 275 mg/kg/day, the LOAEL was > 275 mg/kg/day, the NEL stood at 190 mg/kg/day and the NOAEL is ≥ 275 mg/kg/day. In series [2] (setting [10]), the LEL was 275 mg/kg/day, the lowest observed adverse effect level (LOAEL) was > 275 mg/kg/day, the NEL is 190 mg/kg/day and the no-observed-adverse-effect level (NOAEL) is ≥ 275 mg/kg/day.
In series [3] (setting [11]), `CC(C)(NC(=O)NCc1ccccc1Cl)c1ccccc1` [Cumyluron] came in with an LEL of 297 mg/kg/day, an LOAEL of 297 mg/kg/day, an NEL of 54 mg/kg/day and an NOAEL of 54 mg/kg/day. In series [3] (setting [12]), the LEL was 297 mg/kg/day, the lowest-observed-adverse-effect level (LOAEL) was 297 mg/kg/day, the NEL worked out at 54 mg/kg/day and the NOAEL came to 54 mg/kg/day. In series [3] (setting [13]), the LEL turned out to be 297 mg/kg/day, the LOAEL was found to be 297 mg/kg/day, the NEL came to 54 mg/kg/day and the NOAEL was determined as 54 mg/kg/day.
As for `NC1CCCCC1` [Cyclohexylamine], in series [4] (setting [14]), the LEL is 100 mg/kg/day, the LOAEL is > 100 mg/kg/day, the NEL worked out at 30 mg/kg/day and the NOAEL was ≥ 100 mg/kg/day. Moreover, in series [4] (setting [15]), the LEL amounted to 100 mg/kg/day, the LOAEL was > 100 mg/kg/day, the NEL amounted to 30 mg/kg/day and the NOAEL was ≥ 100 mg/kg/day.
Regarding `CCCCCCC(C)OC(=O)COc1nc(F)c(Cl)c(N)c1Cl` (configuration not stated) [Fluroxypyr-meptyl], in series [5] (setting [16]), the LEL is > 600 mg/kg/day, the lowest-observed-adverse-effect level (LOAEL) was > 600 mg/kg/day, the NEL was ≥ 600 mg/kg/day and the no-observed-adverse-effect level (NOAEL) is ≥ 600 mg/kg/day. In addition, in series [5] (setting [17]), the LEL worked out at 600 mg/kg/day, the LOAEL came out at 600 mg/kg/day, the NEL came out at 300 mg/kg/day and the NOAEL is 300 mg/kg/day.
Take `CC1(C)OC(c2ccco2)CN1C(=O)C(Cl)Cl` (configuration not stated) [Furilazole]: the LEL in series [6] (setting [18]) worked out at 175 mg/kg/day; in series [6] (group: maternal, systemic / organ weight / liver / nos + reproductive / reproductive performance / resorptions / resorptions) it was 75 mg/kg/day. Besides, the lowest-observed-adverse-effect level (LOAEL) in series [6] (setting [18]) is > 175 mg/kg/day; in series [6] (group: maternal, systemic / organ weight / liver / nos), 75 mg/kg/day. Besides, the NEL in series [6] (setting [18]) stood at 75 mg/kg/day; in series [6] (setting [19]), 10 mg/kg/day. Also, the NOAEL in series [6] (setting [18]) was ≥ 175 mg/kg/day; in series [6] (setting [19]), 10 mg/kg/day.

The values are drawn from EPA's ToxRefDB 2.
